From patent publication US11655235B2, “Pyrrolidine and piperidine compounds” (YUHAN CORPORATION, priority 2019, dated 2023)
pIC50: −log10 of the molar value. One block for each molecule: values may come before it.

Key:
Format in all cases: biochemical
[1] = target: T1, recombinant human DPP7 (Homo sapiens, UniProt Q9UHL4); assay: DPP7 inhibition, fluorogenic substrate Lys-Pro-AMC; conditions: recombinant human DPP7
T1 construct: purchased R&D Systems
In short: (§1)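 Inhibitors are titrated in an 8-point series into the enzyme's assay buffer (DMSO no more than 0.5%). Substrate cleavage at 25 °C is followed by fluorescence, excitation 380 nm and emission 460 nm. IC50 values come from a four-variable logistic model.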

[2] = target: T2, recombinant human DPP8 (Homo sapiens, UniProt Q6V1X1); assay: DPP8 inhibition, fluorogenic substrate Z-Ala-Pro-AMC; conditions: recombinant human DPP8
T2 construct: purchased PBS Bioscience
In short: as §1

[3] = target: DPP4 (Homo sapiens, UniProt P27487); assay: DPP4 inhibition, fluorogenic substrate H-Gly-Pro-AMC; set-up: purchased R&D Systems; conditions: recombinant human DPP4
[4] = target: T3, recombinant human DPP9 (Homo sapiens, UniProt Q86TI2); assay: DPP9 inhibition, fluorogenic substrate H-Gly-Pro-AMC; conditions: recombinant human DPP9
T3 construct: purchased R&D Systems
In short: as §1

[5] = target: T4, recombinant human PREP (Homo sapiens, UniProt P48147); assay: PREP inhibition, fluorogenic substrate Z-Gly-Pro-AMC; conditions: Inhibitory Activity (IC50, nM) PREP, recombinant human PREP
T4 construct: purchased R&D System
T4 sequence (P48147 1-710): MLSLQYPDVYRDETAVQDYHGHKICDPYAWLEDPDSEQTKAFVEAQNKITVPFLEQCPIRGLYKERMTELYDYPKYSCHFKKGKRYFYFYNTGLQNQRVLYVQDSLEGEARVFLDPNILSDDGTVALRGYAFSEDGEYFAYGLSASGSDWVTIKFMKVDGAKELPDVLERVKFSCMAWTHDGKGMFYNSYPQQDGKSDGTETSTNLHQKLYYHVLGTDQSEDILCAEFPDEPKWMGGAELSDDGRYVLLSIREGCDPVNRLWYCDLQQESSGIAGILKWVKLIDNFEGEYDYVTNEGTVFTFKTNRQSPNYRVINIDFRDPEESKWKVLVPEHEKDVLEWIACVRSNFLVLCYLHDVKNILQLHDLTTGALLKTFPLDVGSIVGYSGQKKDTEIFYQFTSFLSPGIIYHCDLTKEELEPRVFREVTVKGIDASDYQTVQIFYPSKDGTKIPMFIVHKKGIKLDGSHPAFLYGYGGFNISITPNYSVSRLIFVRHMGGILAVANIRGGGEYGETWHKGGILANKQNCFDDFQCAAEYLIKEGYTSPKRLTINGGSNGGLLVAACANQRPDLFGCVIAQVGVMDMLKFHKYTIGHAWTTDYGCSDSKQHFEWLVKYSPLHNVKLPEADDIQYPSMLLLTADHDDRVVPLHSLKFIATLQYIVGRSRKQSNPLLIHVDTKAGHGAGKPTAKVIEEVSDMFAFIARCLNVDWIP
In short: as §1

[6] = target: T5, Recombinant human FAP (Homo sapiens, UniProt Q12884); assay: FAP FRET assay, FGF21-sequence FRET peptide substrate; conditions: FRET peptide with human FGF21 sequence, 6 μM, 37° C.
T5 construct: purchased R&D systems
T5 sequence (Q12884 1-760): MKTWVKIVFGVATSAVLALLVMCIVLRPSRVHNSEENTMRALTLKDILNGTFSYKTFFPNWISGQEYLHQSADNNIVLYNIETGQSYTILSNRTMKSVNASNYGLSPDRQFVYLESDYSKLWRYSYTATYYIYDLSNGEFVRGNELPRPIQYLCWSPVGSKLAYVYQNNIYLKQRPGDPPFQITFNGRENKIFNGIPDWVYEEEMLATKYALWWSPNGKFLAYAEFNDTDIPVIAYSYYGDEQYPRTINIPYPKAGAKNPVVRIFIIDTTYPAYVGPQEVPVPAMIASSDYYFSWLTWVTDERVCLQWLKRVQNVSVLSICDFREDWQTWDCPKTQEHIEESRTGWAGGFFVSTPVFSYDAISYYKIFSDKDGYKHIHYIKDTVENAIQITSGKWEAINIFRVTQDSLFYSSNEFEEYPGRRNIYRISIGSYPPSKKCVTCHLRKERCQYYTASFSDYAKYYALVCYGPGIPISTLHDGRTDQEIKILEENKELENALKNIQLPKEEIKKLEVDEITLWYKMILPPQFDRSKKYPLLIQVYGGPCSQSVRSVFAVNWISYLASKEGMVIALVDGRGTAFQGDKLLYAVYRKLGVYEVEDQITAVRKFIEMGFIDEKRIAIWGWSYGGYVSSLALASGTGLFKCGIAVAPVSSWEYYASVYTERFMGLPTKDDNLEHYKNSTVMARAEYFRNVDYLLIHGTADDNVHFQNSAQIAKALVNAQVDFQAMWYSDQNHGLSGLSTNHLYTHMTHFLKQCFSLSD
In short: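 FRET peptide bearing human FGF21 sequence (6 μM final) cleaved by 10 ng recombinant human FAP at 37° C in HEPES pH 7.2 buffer with NaCl, BSA and EDTA, DMSO up to 0.1%. Signal-rate decrease versus uninhibited control fitted to a four-variable logistic model for IC50.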

[7] = target: T5, Recombinant human FAP; assay: FAP inhibition, fluorogenic substrate Z-Gly-Pro-AMC; conditions: recombinant human FAP, substrate Z-Gly-Pro-AMC
In short: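 Eight-point compound dilutions (≤0.1% DMSO) were incubated at 25° C with 10 ng recombinant human FAP in Tris pH 7.5/1 M NaCl/BSA buffer and Z-Gly-Pro-AMC. Inhibition was taken as % drop in fluorescence rate (380/460 nm) against uninhibited control; IC50 came from a four-parameter logistic fit.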

T2 sequence (Q6V1X1 whole entry): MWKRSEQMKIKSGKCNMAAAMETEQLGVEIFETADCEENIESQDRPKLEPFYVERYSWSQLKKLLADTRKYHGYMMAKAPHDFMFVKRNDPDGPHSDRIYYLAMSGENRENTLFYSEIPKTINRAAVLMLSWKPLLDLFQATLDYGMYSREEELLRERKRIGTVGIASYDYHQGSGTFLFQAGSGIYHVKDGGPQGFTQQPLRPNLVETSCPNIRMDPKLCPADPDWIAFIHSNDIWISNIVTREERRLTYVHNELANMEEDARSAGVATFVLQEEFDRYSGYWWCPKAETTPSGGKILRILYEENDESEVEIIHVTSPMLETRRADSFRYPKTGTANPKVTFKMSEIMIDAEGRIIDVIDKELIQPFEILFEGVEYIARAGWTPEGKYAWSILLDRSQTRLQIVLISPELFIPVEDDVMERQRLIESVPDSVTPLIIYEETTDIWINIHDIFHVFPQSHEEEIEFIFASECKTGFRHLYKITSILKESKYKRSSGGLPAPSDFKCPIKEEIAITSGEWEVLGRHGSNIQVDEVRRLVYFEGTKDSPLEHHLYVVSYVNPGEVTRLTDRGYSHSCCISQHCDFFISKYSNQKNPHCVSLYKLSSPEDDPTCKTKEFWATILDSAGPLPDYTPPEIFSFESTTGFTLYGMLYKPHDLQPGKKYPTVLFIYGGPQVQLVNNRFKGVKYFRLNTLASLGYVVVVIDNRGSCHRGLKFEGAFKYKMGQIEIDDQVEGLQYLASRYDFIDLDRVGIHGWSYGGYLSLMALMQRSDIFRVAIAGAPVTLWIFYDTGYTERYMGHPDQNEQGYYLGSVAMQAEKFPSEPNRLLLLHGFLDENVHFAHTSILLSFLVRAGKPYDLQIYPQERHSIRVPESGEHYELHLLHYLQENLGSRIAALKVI
Chain of DPP4 (P27487 whole entry): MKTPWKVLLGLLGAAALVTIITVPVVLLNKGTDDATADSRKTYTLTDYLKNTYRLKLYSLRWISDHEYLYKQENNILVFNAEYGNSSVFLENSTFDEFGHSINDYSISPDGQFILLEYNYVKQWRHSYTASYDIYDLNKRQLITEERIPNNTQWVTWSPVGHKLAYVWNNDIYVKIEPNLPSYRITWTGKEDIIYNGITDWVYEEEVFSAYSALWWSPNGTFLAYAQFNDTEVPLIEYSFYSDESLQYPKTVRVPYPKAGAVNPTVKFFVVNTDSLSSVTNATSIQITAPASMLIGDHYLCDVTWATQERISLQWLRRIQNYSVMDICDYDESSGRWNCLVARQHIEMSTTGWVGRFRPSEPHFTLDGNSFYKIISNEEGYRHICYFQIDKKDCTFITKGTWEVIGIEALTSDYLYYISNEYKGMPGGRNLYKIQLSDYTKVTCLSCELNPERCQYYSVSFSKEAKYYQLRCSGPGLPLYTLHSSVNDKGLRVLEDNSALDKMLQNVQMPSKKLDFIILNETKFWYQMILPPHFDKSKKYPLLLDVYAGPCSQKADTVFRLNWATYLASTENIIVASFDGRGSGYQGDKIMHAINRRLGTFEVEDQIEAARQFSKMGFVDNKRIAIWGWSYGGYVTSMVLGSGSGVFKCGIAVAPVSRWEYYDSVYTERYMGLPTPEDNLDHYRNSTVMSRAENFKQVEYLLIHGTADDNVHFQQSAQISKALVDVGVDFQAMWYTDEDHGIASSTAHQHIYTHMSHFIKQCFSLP
T3 sequence (Q86TI2 whole entry): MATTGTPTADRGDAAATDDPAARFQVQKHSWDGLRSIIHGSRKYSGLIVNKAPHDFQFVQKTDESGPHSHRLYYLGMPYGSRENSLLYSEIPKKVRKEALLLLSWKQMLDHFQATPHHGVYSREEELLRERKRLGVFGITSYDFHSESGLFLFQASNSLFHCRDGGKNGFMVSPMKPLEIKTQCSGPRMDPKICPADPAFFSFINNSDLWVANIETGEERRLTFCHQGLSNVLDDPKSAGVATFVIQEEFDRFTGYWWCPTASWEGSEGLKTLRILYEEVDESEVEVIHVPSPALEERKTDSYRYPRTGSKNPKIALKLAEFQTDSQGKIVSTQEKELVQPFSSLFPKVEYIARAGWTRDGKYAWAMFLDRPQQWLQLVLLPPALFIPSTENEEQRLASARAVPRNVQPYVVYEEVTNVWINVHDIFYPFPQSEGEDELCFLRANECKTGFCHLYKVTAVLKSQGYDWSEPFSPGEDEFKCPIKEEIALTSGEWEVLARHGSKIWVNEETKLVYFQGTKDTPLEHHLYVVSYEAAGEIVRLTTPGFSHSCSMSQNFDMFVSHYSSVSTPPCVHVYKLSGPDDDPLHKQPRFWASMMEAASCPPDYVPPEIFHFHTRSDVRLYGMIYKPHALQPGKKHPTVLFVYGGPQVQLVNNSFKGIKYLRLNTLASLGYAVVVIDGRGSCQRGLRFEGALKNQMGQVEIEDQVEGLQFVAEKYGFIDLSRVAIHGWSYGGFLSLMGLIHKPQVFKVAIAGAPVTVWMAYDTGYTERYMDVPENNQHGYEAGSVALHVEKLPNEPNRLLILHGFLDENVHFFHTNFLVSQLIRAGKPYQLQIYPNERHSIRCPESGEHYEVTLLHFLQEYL

SMILES: Cc1cnc2cccc(N(C)[C@H]3CCN(CC(=O)N4C[C@@H](F)C[C@H]4C#N)C3)c2c1 [Example 155, (2S,4S)-4-fluoro-1-[2-[(3S)-3-[methyl-(3-methyl-5-quinolyl)amino]pyrrolidin-1-yl]acetyl]pyrrolidine-2-carbonitrile]
pIC50 [1]: 5.54
pIC50 [2]: 5.01
pIC50 [3]: 5.73
pIC50 [4]: 5.24
IC50 [5]: 2540 nM
pIC50 [6]: 8.62

SMILES: CN(c1cccc2ncc(F)cc12)[C@H]1CCN(CC(=O)N2C[C@@H](F)C[C@H]2C#N)C1 [Example 156, (2S,4S)-4-fluoro-1-(2-((S)-3-((3-fluoroquinolin-5-yl)(methyl)amino)pyrrolidin-1-yl)acetyl)pyrrolidine-2-carbonitrile]
pIC50 [1]: 5.30
pIC50 [2]: 4.92
pIC50 [3]: 6.13
pIC50 [4]: 5.17
IC50 [5]: 1020 nM
pIC50 [6]: 8.57

SMILES: CN(c1ccc(F)c2ncccc12)[C@H]1CCN(CC(=O)N2C[C@@H](F)C[C@H]2C#N)C1 [Example 158, (2S,4S)-4-fluoro-1-(2-((S)-3-((8-fluoroquinolin-5-yl)(methyl)amino)pyrrolidin-1-yl)acetyl)pyrrolidine-2-carbonitrile]
pIC50 [1]: 5.31
pIC50 [2]: 5.06
pIC50 [3]: 5.68
pIC50 [4]: 5.47
IC50 [5]: 1720 nM
pIC50 [6]: 8.40

SMILES: N#C[C@@H]1C[C@H](F)CN1C(=O)CN1CC[C@H](Nc2ccc(F)c3ncccc23)C1 [Example 264, (2S,4S)-4-fluoro-1-[2-[(3S)-3-[(8-fluoro-5-quinolyl)amino]pyrrolidin-1-yl]acetyl]pyrrolidine-2-carbonitrile]
pIC50 [1]: 5.64
pIC50 [7]: 8.89
pIC50 [2]: 5.44
pIC50 [3]: 5.98
pIC50 [6]: 8.62

SMILES: Cc1cccc2c(NC3CCN(CC(=O)N4CCC[C@H]4C#N)CC3)nc(Cl)nc12 [Example 359, (2S)-1-[2-[4-[(2-chloro-8-methyl-quinazolin-4-yl)amino]-1-piperidyl]acetyl]pyrrolidine-2-carbonitrile]
pIC50 [1]: 6.01
pIC50 [7]: 8.64
pIC50 [2]: 5.08
pIC50 [3]: < 5.00
pIC50 [4]: 4.50
IC50 [5]: 6000 nM

SMILES: N#C[C@@H]1C[C@H](F)CN1C(=O)CN1CCC(Oc2ccnc3ccc(C(F)(F)F)cc23)CC1 [Example 411, (2S,4S)-4-fluoro-1-[2-[4-[[6-(trifluoromethyl)-4-quinolyl]oxy]-1-piperidyl]acetyl]pyrrolidine-2-carbonitrile]
pIC50 [1]: 5.50
pIC50 [7]: 8.60
pIC50 [2]: 5.00
pIC50 [3]: < 5.00
pIC50 [4]: 4.53
IC50 [5]: 10600 nM

SMILES: N#C[C@@H]1C[C@H](F)CN1C(=O)CN1CCC(Oc2cc(C(F)(F)F)nc3ccccc23)CC1 [Example 412, (2S,4S)-4-fluoro-1-[2-[4-[[2-(trifluoromethyl)-4-quinolyl]oxy]-1-piperidyl]acetyl]pyrrolidine-2-carbonitrile]
pIC50 [1]: 4.97
pIC50 [7]: 8.23
pIC50 [2]: 4.92
pIC50 [3]: < 5.00
pIC50 [4]: 4.16
IC50 [5]: 1280 nM

SMILES: N#C[C@@H]1C[C@H](F)CN1C(=O)CN1CCC(Oc2cc(C(F)(F)F)nc3ccc(F)cc23)CC1 [Example 413, (2S,4S)-4-fluoro-1-[2-[4-[[6-fluoro-2-(trifluoromethyl)-4-quinolyl]oxy]-1-piperidyl]acetyl]pyrrolidine-2-carbonitrile]
pIC50 [1]: < 4.00
pIC50 [7]: 8.52
pIC50 [2]: 4.74
pIC50 [3]: < 5.00
pIC50 [4]: < 4.00
IC50 [5]: 26500 nM

SMILES: COc1ccc2nc(C(F)(F)F)cc(OC3CCN(CC(=O)N4C[C@@H](F)C[C@H]4C#N)CC3)c2c1 [Example 414, (2S,4S)-4-fluoro-1-[2-[4-[[6-methoxy-2-(trifluoromethyl)-4-quinolyl]oxy]-1-piperidyl]acetyl]pyrrolidine-2-carbonitrile]
pIC50 [1]: 5.06
pIC50 [7]: 8.37
pIC50 [2]: 4.36
pIC50 [3]: < 5.00
pIC50 [4]: < 4.00
IC50 [5]: 57500 nM

SMILES: COc1cccc2c(OC3CCN(CC(=O)N4C[C@@H](F)C[C@H]4C#N)CC3)cc(C(F)(F)F)nc12 [Example 415, (2S,4S)-4-fluoro-1-[2-[4-[[8-methoxy-2-(trifluoromethyl)-4-quinolyl]oxy]-1-piperidyl]acetyl]pyrrolidine-2-carbonitrile]
pIC50 [1]: 4.87
pIC50 [7]: 8.19
pIC50 [2]: 4.78
pIC50 [3]: < 5.00
pIC50 [4]: 4.40
IC50 [5]: 1410 nM

Other lines, results leading:

pIC50 [1]: 5.69
pIC50 [7]: 8.09
pIC50 [2]: 5.03
pIC50 [3]: < 5.00
pIC50 [4]: 4.64
IC50 [5]: 1100 nM
SMILES: N#C[C@@H]1C[C@H](F)CN1C(=O)CN1CCC(Oc2nccc3ccccc23)CC1 [Example 419, (2S,4S)-4-fluoro-1-[2-[4-(1-isoquinolyloxy)-1-piperidyl]acetyl]pyrrolidine-2-carbonitrile]

pIC50 [1]: 5.68
pIC50 [7]: 8.15
pIC50 [2]: 5.07
pIC50 [3]: < 5.00
pIC50 [4]: 4.65
IC50 [5]: 1740 nM
SMILES: N#C[C@@H]1C[C@H](F)CN1C(=O)CN1CCC(Oc2cncc3ccccc23)CC1 [Example 420, (2S,4S)-4-fluoro-1-[2-[4-(4-isoquinolyloxy)-1-piperidyl]acetyl]pyrrolidine-2-carbonitrile]

pIC50 [1]: < 4.00
pIC50 [7]: 8.60
pIC50 [2]: 5.80
pIC50 [3]: 5.12
pIC50 [4]: 5.38
IC50 [5]: 2610 nM
SMILES: N#C[C@@H]1C[C@H](F)CN1C(=O)CN1CCC(Oc2cccc3cnccc23)CC1 [Example 421, (2S,4S)-4-fluoro-1-[2-[4-(5-isoquinolyloxy)-1-piperidyl]acetyl]pyrrolidine-2-carbonitrile]

pIC50 [1]: 5.91
pIC50 [7]: 7.94
pIC50 [2]: 5.19
pIC50 [3]: < 5.00
pIC50 [4]: 4.99
IC50 [5]: 1410 nM
SMILES: N#C[C@@H]1C[C@H](F)CN1C(=O)CN1CCC(Oc2ccc3cnccc3c2)CC1 [Example 422, (2S,4S)-4-fluoro-1-[2-[4-(6-isoquinolyloxy)-1-piperidyl]acetyl]pyrrolidine-2-carbonitrile]

pIC50 [1]: 5.69
pIC50 [7]: 8.03
pIC50 [2]: 5.46
pIC50 [3]: 5.05
pIC50 [4]: 5.03
IC50 [5]: 990 nM
SMILES: N#C[C@@H]1C[C@H](F)CN1C(=O)CN1CCC(Oc2ccc3ccncc3c2)CC1 [Example 423, (2S,4S)-4-fluoro-1-[2-[4-(7-isoquinolyloxy)-1-piperidyl]acetyl]pyrrolidine-2-carbonitrile]
